Where a SMILES comes first, the peptide text is derived from it. Bridges are numbered along the chain shown (N, C = ends). [ ]: non-standard residue; d: D form. Trp(1-CH2COOH) = N[C@@H](Cc1cn(CC(=O)O)c2ccccc12)C(=O)O; Trp(βS-Me) = C[C@@H](c1c[nH]c2ccccc12)[C@H](N)C(=O)O; Phe(3,4,5-F3) = N[C@@H](Cc1cc(F)c(F)c(F)c1)C(=O)O; Morpholine(3S-CO) = O=C(O)[C@@H]1COCCN1; d(cisHyp) = O=C(O)[C@H]1C[C@@H](O)CN1; Hyp = O=C(O)[C@@H]1C[C@@H](O)CN1; NMeF = CN[C@@H](Cc1ccccc1)C(=O)O; dHyp = O=C(O)[C@H]1C[C@H](O)CN1; NMeNle = CCCC[C@H](NC)C(=O)O; NMeA = CN[C@@H](C)C(=O)O; Orn = NCCC[C@H](N)C(=O)O; Dab = NCC[C@H](N)C(=O)O
Target: T1, Human PD-L1/PD-1 (Homo sapiens, UniProt Q9NZQ7)
T1 construct: TVMV protease cleavage site (C); made in house; host or cells: HEK293T cells
Experiment: HTRF Human PD-L1/PD-1 binding assay (PD-1-Ig/PD-L1-His)
Conditions: PD-L1-His 10 nM, PD-1-Ig 20 nM; class symbol; read-out: HTRF Human PD-L1/PD-1 Binding Assay IC50 Range
Procedure, shortened: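 Competition of macrocyclic peptides for PD-1/PD-L1 binding measured by HTRF in dPBS containing 0.1% BSA and 0.05% Tween-20. Compound and PD-L1-His (10 nM final) incubated 15 min before PD-1-Ig (20 nM final) and a further 15 min.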

T1 sequence (Q9NZQ7 with tags, fused parts or gaps): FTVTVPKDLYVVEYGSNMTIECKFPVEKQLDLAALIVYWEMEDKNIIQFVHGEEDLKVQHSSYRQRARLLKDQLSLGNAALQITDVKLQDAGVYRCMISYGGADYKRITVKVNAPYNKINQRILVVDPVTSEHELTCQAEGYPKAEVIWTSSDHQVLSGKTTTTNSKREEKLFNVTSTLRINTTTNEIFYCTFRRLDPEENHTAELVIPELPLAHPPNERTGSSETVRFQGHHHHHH

SMILES | IC50 [nM]
CCCC[C@H]1C(=O)N(C)[C@@H](CCCC)C(=O)N[C@@H](C)C(=O)N[C@H](C(=O)NCC(N)=O)CSCC(=O)N[C@@H](Cc2ccc(O)cc2)C(=O)N2CCOC[C@H]2C(=O)N[C@@H](CC(=O)O)C(=O)N2CCC[C@H]2C(=O)N[C@@H](Cc2cnc[nH]2)C(=O)N[C@@H](CCC(N)=O)C(=O)N2C[C@H](O)C[C@H]2C(=O)N[C@@H](Cc2c[nH]c3ccccc23)C(=O)N[C@@H](CO)C(=O)N[C@@H](Cc2c[nH]c3ccccc23)C(=O)N1C [Example 1514] ({CH2CO}-Y[Morpholine(3S-CO)]DPHQ[Hyp]WSW[NMeNle][NMeNle]ACG-NH2; thioether N-14) | 1 to 9.9
CCCC[C@H]1C(=O)N(C)[C@@H](CCCC)C(=O)N[C@@H](CCCN)C(=O)N[C@H](C(=O)NCC(N)=O)CSCC(=O)N[C@@H](Cc2ccc(OC)cc2)C(=O)N(C)[C@@H](C)C(=O)N[C@@H](CCN)C(=O)N2CCC[C@H]2C(=O)N[C@@H](Cc2cnc[nH]2)C(=O)N[C@@H](CCCCN)C(=O)N2C[C@H](O)C[C@H]2C(=O)N[C@@H](Cc2c[nH]c3ccccc23)C(=O)N[C@@H](CCN)C(=O)N[C@@H](Cc2c[nH]c3ccccc23)C(=O)N1C [Example 7095] ({CH2CO}-Y(Me)[NMeA][Dab]PHK[Hyp]W[Dab]W[NMeNle][NMeNle][Orn]CG-NH2; thioether N-14) | 1 to 9.9
CCCC[C@H]1C(=O)N(C)[C@@H](CCCC)C(=O)N[C@@H](CC(C)C)C(=O)N[C@H](C(=O)NCC(N)=O)CSCC(=O)N[C@@H](Cc2ccc(O)cc2)C(=O)N(C)[C@@H](C)C(=O)N[C@@H](CCN)C(=O)N2CCC[C@H]2C(=O)N[C@@H](Cc2cnc[nH]2)C(=O)N[C@@H](CCC(=O)O)C(=O)N2C[C@H](O)C[C@H]2C(=O)N[C@@H](Cc2c[nH]c3ccccc23)C(=O)N[C@@H](CO)C(=O)N[C@@H](Cc2cn(CC(=O)O)c3ccccc23)C(=O)N1C [Example 6236] ({CH2CO}-Y[NMeA][Dab]PHE[Hyp]WS[Trp(1-CH2COOH)][NMeNle][NMeNle]LCG-NH2; thioether N-14) | 1 to 9.9
CCCC[C@H]1C(=O)N(C)[C@@H](CCCC)C(=O)N[C@@H](CCC(=O)O)C(=O)N[C@H](C(=O)NCC(N)=O)CSCC(=O)N[C@@H](Cc2ccc(O)cc2)C(=O)N2C[C@H](O)C[C@H]2C(=O)N[C@@H](CC(N)=O)C(=O)N2CCC[C@H]2C(=O)N[C@@H](Cc2cnc[nH]2)C(=O)N[C@@H](CCC(=O)O)C(=O)N2C[C@H](O)C[C@H]2C(=O)N[C@@H](Cc2c[nH]c3ccccc23)C(=O)N[C@@H](CO)C(=O)N[C@@H](Cc2c[nH]c3ccccc23)C(=O)N1C [Example 1283] ({CH2CO}-Y[Hyp]NPHE[Hyp]WSW[NMeNle][NMeNle]ECG-NH2; thioether N-14) | 10 to 99.9

Continued, values first:

IC50 [nM] | SMILES
1 to 9.9 | CCCC[C@H]1C(=O)N2C[C@H](O)C[C@@H]2C(=O)N[C@@H](CC(=O)O)C(=O)N[C@@H](C(C)C)C(=O)N(C)[C@@H](Cc2ccccc2)C(=O)N[C@@H](CCC(=O)O)C(=O)N2C[C@H](O)C[C@@H]2C(=O)N[C@@H](Cc2c[nH]c3ccccc23)C(=O)N[C@@H](Cc2ccc(O)cc2)C(=O)N[C@@H](CCCCN)C(=O)N[C@H](C(=O)NCC(N)=O)CSCC(=O)N[C@@H](Cc2cc(F)c(F)c(F)c2)C(=O)N(C)[C@@H](Cc2ccccc2)C(=O)N1C [Example 9331] ({CH2CO}-[Phe(3,4,5-F3)][NMeF][NMeNle][d(cisHyp)]DV[NMeF]E[d(cisHyp)]WYKCG-NH2; thioether N-13)
1 to 9.9 | CCCC[C@H]1C(=O)N2C[C@@H](O)C[C@@H]2C(=O)N[C@@H](CC(=O)O)C(=O)N[C@@H](C(C)C)C(=O)N(C)[C@@H](Cc2ccccc2)C(=O)N[C@@H](Cc2ccc(O)cc2)C(=O)N2CCC[C@@H]2C(=O)N[C@@H]([C@@H](C)c2c[nH]c3ccccc23)C(=O)N[C@@H](Cc2ccc(O)cc2)C(=O)N[C@@H](CC(C)C)C(=O)N[C@H](C(=O)NCC(N)=O)CSCC(=O)N[C@@H](Cc2cc(F)c(F)c(F)c2)C(=O)N(C)[C@@H](Cc2ccccc2)C(=O)N1C [Example 10551] ({CH2CO}-[Phe(3,4,5-F3)][NMeF][NMeNle][dHyp]DV[NMeF]Y[dP][Trp(βS-Me)]YLCG-NH2; thioether N-13)
